This note sets out measurements from patent publication US7144731B2, “SCF antibody compositions and methods of using the same” (Amgen Inc., priority 1989, dated 2006).

One data set concerns UT-7 cells. The data set can be described thus: UT-7 ^3H-thymidine uptake assay. It counts as cell-based, human. The procedure: UT-7 cells are a human megakaryocyte, huGM-CSF responsive cell line obtained from John Adamson, New York Blood Center, New York, N.Y. UT-7 cells were cultured in Iscove's Modified Dulbecco's Medium, 10% FBS, 1× glutamine, 5 \g/ml huGM-CSF. Cells are passaged twice a week at 1×10^5 cells/ml.
Cells were washed twice in phosphate buffered saline (PBS) and resuspended in RPMI medium with 4% FBS and glutamine penicillin streptomycin (GPS) (Irvine Scientific Cat No. 9316 used at 1% volume per volume) at 4×10^4 cells/ml before use. Human SCF along with specific samples were added to 4000 cells/well in 96 well plates and were cultured for 72 hrs. 0.5 uCi/well of ^3H-Thymidine was then added to each plate, plates were harvested and counted 4 hours later.

In data set [1] the target is T1, SCF receptor (OCIM1 plasma membrane) (Homo sapiens, UniProt P10721).
T1 construct: endogenous in cells; host or cells: OCIM1 human erythroleukemic cells, plasma membrane preparation
The experiment in a line: SCF radioreceptor assay. It counts as binding. The procedure: OCIM1 cells, [Papayannopoulou et al., Blood 72:1029–1038 (1988)] are a human erythroleukemic cell line expressing many human SCF receptors per cell. These cells are grown in Iscove's Modified Dulbecco's Medium, 10% FBS, and 1× glutamine and passaged 3 times a week to 1×10^5 cells/ml.
Preparation of the OCIM1 plasma membrane is as follows with all steps performed on ice.
First, 40 T175 flasks of cells were grown-up in OCIM1 culture medium, for a total of 1.9×10^9 […]. The conditioned medium and 1 mM Phenyl Methyl Sulfonyl Fluoride (PMSF) protease inhibitor, was spun down in 8×250 ml tubes at 1000 rpm for 10 minutes at 4° C. Cells were washed with PBS and repelleted in 4×50 ml centrifuge tubes at 1000 rpm for 10 minutes at 4° C. Cells were resuspended in 20 ml ice cold PBS with glucose sodium pyruvate (Gibco Cat #310-4287). The 20 ml cell solution was put into a pre-pressurized, pre-chilled (4° C.) “cell bomb” designed to lyse the cells. Cells were pressurized at 400–650 PSI for 10 minutes to establish equilibrium. When the pressure is released cell lysis occurs.
At this point the cells were checked for the percentage of cell lysis. 90% lysis was common. The cell suspension was resuspended in 80 mls sucrose buffer (0.25M sucrose, 10 mM Tris, 1 mM EDTA in double distilled (dd) H2O, filtered through a 0.45 u filter, pH 7.0) and divided between two 40 ml screwcap tubes. Tubes were spun at 5900 RPM for 10 minutes in a Beckman J2-21 centrifuge, JA-20 rotor at 4° C. The supernatants were saved and spun one more time as above to further remove any unwanted material. Supernatants were saved and distributed equally into 2 nalgene 40 ml centrifuge tubes. These supernatants were centrifuged at 16,000 RPM 4° C. for 30 min. in J2-21 centrifuge, JA-20 rotor. These supernatants were discarded being careful to save pellets. Each pellet was resuspended in sucrose buffer so there were 20 mls per tube in 4×36 ml plastic ultracentrifuge tubes. Using a 20 ml syringe and a large trochar, the solution was carefully underlayered in each tube with ice cold 36% sucrose solution (36.1 g sucrose/100 mls ddH2O), bringing the level of the liquid to within 2 mm of the top of the tube. Without disturbing the interface, each tube was carefully placed into each of […] titanium ultracentrifuge tubes. Tubes were centrifuged at 27,000 RPM, 4° C. for 75 minutes in an ultracentrifuge. These tubes were carefully removed from the rotor and from titanium buckets, placed in a rack with the 36% sucrose interface visible. The membraneous material at the interface was collected with a pasteur pipet and transfered into 2 clean nalgene 40 ml centrifuge tubes. Volume was brought up to 40 mls with ice cold sucrose buffer. Tubes were balanced and centrifuged as before at 5900 RPM in J2-21 centrifuge. […]

Data set [2] relates to 5-FU treated mouse bone marrow cells. The data set can be described thus: HPP-CFC assay. It counts as cell-based. The following applies: COS-1 supernatants, concentrations tested. An excerpt: There are a variety of biological activities which can be attributed to the natural mammalian rat SCF as well as the recombinant rat SCF protein. One such activity is its effect on early hematopoietic cells. This activity can be measured in a High Proliferative Potential Colony Forming Cell (HPP-CFC) assay [Zsebo, et al., supra (1988)]. To investigate the effects of factors on early hematopoietic cells, the HPP-CFC assay system utilizes mouse bone marrow derived from animals 2 days after 5-fluorouracil (5-FU) treatment. […] The rat SCF is plated in the presence of CSF-1 or IL-6 in semi-solid agar cultures. The agar cultures contain McCoys complete medium (GIBCO), 20% fetal bovine serum, 0.3% agar, and 2×10^5 bone marrow cells/ml. The McCoys complete medium contains the following components: 1× McCoys medium supplemented with 0.1 mM pyruvate, 0.24× essential amino acids, 0.24× non-essential amino acids, 0.027% sodium bicarbonate, 0.24× vitamins, 0.72 mM glutamine, 25 μg/ml L-serine, and 12 μg/ml L-asparagine. The bone marrow cells are obtained from Balb/c mice injected i.v. with 150 mg/kg 5-FU. The femurs are harvested 2 days post 5-FU treatment of the mice and bone marrow is flushed out. The red blood cells are lysed with red blood cell lysing reagent (Becton Dickenson) prior to plating. Test substances are plated with the above mixture in 30 mm dishes. Fourteen days later the colonies (>1 mm in diameter) which contain thousands of cells are scored. This assay was used throughout the purification of natural mammalian cell-derived rat SCF.

The subject of data set [3] is murine mast cell line, MC/9. The experiment in a line: MC/9 ^3H-thymidine uptake assay. The format is cell-based. The following applies: COS-1 supernatants, concentrations tested. The procedure: Another useful biological activity of both naturally-derived and recombinant rat SCF is the ability to cause the proliferation of the […] murine mast cell line, MC/9 (ATCC CRL 8306). MC/9 cells are cultured with a source of […] according to the ATCC CRL 8306 protocol. The medium used in the bioassay is RPMI 1640, 4% fetal bovine serum, 5×10^−5M 2-mercaptoethanol, and 1× glutamine-pen-strep. The MC/9 cells proliferate in response to SCF without the requirement for other growth factors. This proliferation is measured by first culturing the cells for 24 h without growth factors, plating 5000 cells in each well of 96 well plates with test sample for 48 h, pulsing for 4 h with 0.5 uCi ^3H-thymidine (specific activity 20 Ci/mmol), harvesting the solution onto glass fiber filters, and then measuring specifically-bound radioactivity. This assay was used in the purification of mammalian cell derived rat SCF after the ACA 54 gel filtration step, section C2 of this Example. Typically, SCF caused a 4–10 fold increase in CPM over background.

In another data set the test system is human bone marrow. The experiment in a line: Human bone marrow colony assay. It counts as cell-based. The following applies: for Colony #/100,000 cells ± SD: COS-1 CM, 20 U/ml EPO, 14 days, colonies ≥0.2 mm. The procedure: The cDNA of human SCF corresponding to amino acids 1–162 obtained by PCR reactions outlined in Example 3D, was expressed in COS-1 cells as described for the rat SCF in Example 4. COS-1 supernatants were assayed on human bone marrow as well as in the murine HPP-CFC and MC/9 assays. […] The culture conditions of the assay were as follows: human bone marrow from healthy volunteers was centrifuged over Ficoll-Hypaque gradients (Pharmacia) and cultured in 2.1% methyl cellulose, 30% fetal calf serum, 6×10^−5 M 2-mercaptoethanol, 2 mM glutamine, ISCOVE'S medium (GIBCO), 20 U/ml EPO, and 1×10^5 cells/ml for 14 days in a humidified atmosphere containing 7% O2, 10% CO2, and 83% N2. Only those colonies of 0.2 mm in size or larger are indicated.
Recombinant human SCF was tested in agar colony assays on human bone marrow in combination with other growth factors as described above.

Another data set concerns KG-1. The data set can be described thus: KG-1 soft agar cloning assay. The format is cell-based, human. The following applies: COS-1 supernatant. The procedure: Another activity of recombinant human SCF is the ability to cause proliferation in soft agar of the human acute myelogenous leukemia (AML) cell line, KG-1 (ATCC CCL 246). COS-1 supernatants from transfected cells were tested in a KG-1 agar cloning assay [Koeffler et al., Science, 200, 1153–1154 (1978)] essentially as described except cells were plated at 3000/ml.

A further data set relates to mouse bone marrow cells. The data set can be described thus: Pre-B cell colony formation in agar cultures. The format is cell-based. An excerpt: The ability of recombinant rat SCF^1-164 (rrSCF^1-164), to act synergistically with IL-7 to enhance lymphoid cell proliferation was studied in agar cultures of mouse bone marrow. In this assay, the colonies formed with rrSCF^1-164 alone contained monocytes, neutrophils, and blast-cells, while the colonies stimulated by IL-7 alone or in combination with rrSCF^1-164 contained primarily pre-B cells. Pre-B cells, characterized as B220^+, sIg^−, cμ^+, were identified by FACS analysis of pooled cells using fluorescence-labeled antibodies to the B220 antigen [Coffman, Immunol. Rev., 69, 5 (1982)] and to surface Ig (FITC-goat anti-K, Southern Biotechnology Assoc., Birmingham, Ala.); and by analysis of cytospin slides for cytoplasmic μ expression using fluorescence-labeled antibodies (TRITC-goat anti-μ, Southern Biotechnology Assoc.,). Recombinant human IL-7 (rhIL-7) was obtained from Biosource International (Westlake Village, Calif.). When rrSCF^1-164 was added in combination with the pre-B cell growth factor IL-7, a synergistic increase in colony formation was observed (Table 16), indicating a stimulatory role of rrSCF^1-164 on early B cell progenitors.

The test system of a further data set is normal human bone marrow. The experiment in a line: Human CFU-GM assay. The format is cell-based. The following applies: average of triplicate cultures; SCF = COS-1 supernatant 4 days after transfection.

In the case of “SCF^1-137: E. coli human SCF analog, amino acids 1 to 137”, the “specific activity in the UT-7 assay” value in the data set with UT-7 cells is on record as “about 25 % of the value for SCF^1-164”. In data set [1], the “specific activity in the radioreceptor assay” value is reported as “full specific activity”.
Take “SCF^1-248: full length recombinant human stem cell factor formed in E. coli”: the “activity in the UT-7 assay” value in the data set on UT-7 cells (final material after cation exchange chromatography) is listed as “no activity”; in the data set with UT-7 cells (material following anion exchange chromatography), “active”.
For “V19.8 human SCF^1-162: recombinant human SCF amino acids 1–162, COS-1 supernatant”, the “activity in murine HPP-CFC assay” value in data set [2] is “not active”. Besides, the “activity in murine MC/9 assay” value in data set [3] is on record as “not active”. In addition, the “Colony #/100,000 cells ± SD” value with human bone marrow (50 μl assayed) was determined as 22 ± 3; in the data set on human bone marrow (100 μl assayed) it was 33 ± 7. Moreover, in the data set with human bone marrow (COS-1 supernatants), the “activity on human bone marrow” value is “active on human bone marrow”. The “Colony #/3000 Cells ± SD” value in the data set with KG-1 (1.5 μl assayed) was 6 ± 6; in the data set with KG-1 (3 μl assayed) it was 6 ± 4; in the data set on KG-1 (6 μl assayed), 9 ± 5; with KG-1 (12 μl assayed), 8 ± 0; in the data set on KG-1 (25 μl assayed, triplicate) it was 14 ± 0.
Turning to “hSCF: Recombinant human SCF tested in agar colony assays; form not stated at Table 13”, the “Colony #/10^5 cells (14 Days)” value in the data set on human bone marrow (agar colony assay, factors alone or combined) was found to be 0.
Regarding “rhIL-7: Recombinant human IL-7 from Biosource International”, the “Colony Number per 5 × 10^4 mouse bone marrow cells plated” value with mouse bone marrow cells (25 ng) was 4 ± 2; in the data set on mouse bone marrow cells (50 ng), 13 ± 6; in the data set on mouse bone marrow cells (100 ng) it was 18 ± 6; with mouse bone marrow cells (200 ng, mean of triplicate dishes ± SD), 21 ± 6.

B1: CSF-1: human macrophage colony-stimulating factor (protein, UniProt P09603 33-554, looked up)
Macrophage colony-stimulating …: EEVSEYCSHMIGSGHLQSLQRLIDSQMETSCQITFEFVDQEQLKDPVCYLKKAFLLVQDIMEDTMRFRDNTPNAIAIVQLQELSLRLKSCFTKDYEEHDKACVRTFYETPLQLLEKVKNVFNETKNLLDKDWNIFSKNCNNSFAECSSQDVVTKPDCNCLYPKAIPSSDPASVSPHQPLAPSMAPVAGLTWEDSEGTEGSSLLPGEQPLHTVDPGSAKQRPPRSTCQSFEPPETPVVKDSTIGGSPQPRPSVGAFNPGMEDILDSAMGTNWVPEEASGEASEIPVPQGTELSPSRPGGGSMQTEPARPSNFLSASSPLPASAKGQQPADVTGTALPRVGPVRPTGQDWNHTPQKTDHPSALLRDPPEPGSPRISSLRPQGLSNPSTLSAQPQLSRSHSSGSVLPLGELEGRRSTRDRRSPAEPEGGPASEGAARPLPRFNSVPLTDTGHERQSEGSFSPQLQESVFHLLVPSVILVLLAVGGLLFYRWRRRSHQEPQRADSPLEQPEGSPLTQDDRQVELPV
For B1, the “Colony #/100,000 cells (±SEM)” value in the data set on normal human bone marrow amounted to 0.
